{
  "source": "paper PMC4564171",
  "about": "(PLoS ONE, 2015)",
  "key": {"[1]": {"system": "60 bp pvirB FID DNA probe", "experiment": "Fluorescence intercalator displacement (FID) assay, 60 bp probe", "type": "binding, Shigella flexneri", "settings": "for 60 bp pvirB FID probe %fluorescence: ethidium bromide 45 μM, probe 1.5 μM", "method": "(§1) The FID protocol was based on previously published studies and was conducted in triplicate. For the assay, black, half-area, 96-well plates (Corning, Twerksbury, MA) were used. First, 70 μL of ethidium bromide in Tris Buffer (0.1 M Tris HCl, 0.1 M NaCl, pH 8.0) was added to all wells. The concentration of ethidium bromide was contingent upon the length of the DNA probe that was used. For the 60 bp pvirB FID DNA probe, the final ethidium bromide concentration used was 45 μM; whereas, for the 10 bp pvirB (51–60) FID DNA probe, the final ethidium bromide concentration used was 7.5 μM. Next, 10 μL of either pvirB FID DNA probes (10 or 60 bp) in TE/NaCl buffer (see above) or 10 μL of TE/NaCl buffer (background fluorescence control) were added to the appropriate wells of the plate. The final concentrations of the pvirB FID DNA probes were 1.5 μM. Lastly, 20 μL of test compound (either 19615 or Berenil) in 10% DMSO Tris Buffer or 20 μL of 10% DMSO Tris Buffer (100% fluorescence control) were added to the appropriate wells of the plate. The final concentrations of each test compound ranged from 12.5 μM to 100 μM. After the addition of all reagents, the plates were protected from light and allowed to equilibrate for 30 min on an orbital shaker at room temperature. Following equilibration, fluorescence was measured […] using a Biotek Synergy H1 plate reader (Winooski, VT). The average background fluorescence was subtracted from all data generated and %fluorescence was calculated for all wells containing compound via the following formula: %fluorescence=Ftest/F100%^*100 where: Ftest = the average fluorescence value obtained for each test compound and F100% = the average fluorescence value obtained for each 100% fluorescence control."}, "[2]": {"system": "10 bp pvirB FID DNA probes", "experiment": "Fluorescence intercalator displacement (FID) assay, 10 bp probes", "type": "binding, Shigella flexneri", "settings": "for 10 bp pvirB 51–60 FID probe %fluorescence: ethidium bromide 7.5 μM, probe 1.5 μM", "method": "as §1, with “The final concentrations of each test compound ranged from 12.5 μM to 100 μM.” left out"}, "[3]": {"system": "60 bp pvirB FID (DNA, duplex) AGAATATTATTCTTTTATCCAATAAAGATAAATTGCATCAATCCAGCTATTAAAATAGTA/TACTATTTTAATAGCTGGATTGATGCAATTTATCTTTATTGGATAAAAGAATAATATTCT", "experiment": "fluorescent intercalator displacement (ethidium bromide)", "settings": "0.1 M NaCl; 0.1 M Tris-HCl pH 8.0, room temperature; 45 μM ethidium displaced; 1.5 μM DNA; 100 μM compound"}, "[4]": {"system": "10 bp pvirB 51-60 FID (DNA, duplex) TAAAATAGTA/TACTATTTTA", "experiment": "fluorescent intercalator displacement (ethidium bromide)", "settings": "0.1 M NaCl; 0.1 M Tris-HCl pH 8.0, room temperature; 7.5 μM ethidium displaced; 1.5 μM DNA; 100 μM compound"}, "[5]": {"system": "pvirB 1-10 (DNA, duplex) AGAATATTAT/ATAATATTCT", "experiment": "fluorescent intercalator displacement (ethidium bromide)", "settings": "0.1 M NaCl; 0.1 M Tris-HCl pH 8.0; ethidium displaced; 2 μM compound, single concentration"}, "[6]": {"system": "pvirB 11-20 (DNA, duplex) TCTTTTATCC/GGATAAAAGA", "experiment": "fluorescent intercalator displacement (ethidium bromide)", "settings": "0.1 M NaCl; 0.1 M Tris-HCl pH 8.0; ethidium displaced; 2 μM compound, single concentration"}, "[7]": {"system": "pvirB 21-30 (DNA, duplex) AATAAAGATA/TATCTTTATT", "experiment": "fluorescent intercalator displacement (ethidium bromide)", "settings": "0.1 M NaCl; 0.1 M Tris-HCl pH 8.0; ethidium displaced; 2 μM compound, single concentration"}, "[8]": {"system": "pvirB 31-40 (DNA, duplex) AATTGCATCA/TGATGCAATT", "experiment": "fluorescent intercalator displacement (ethidium bromide)", "settings": "0.1 M NaCl; 0.1 M Tris-HCl pH 8.0; ethidium displaced; 2 μM compound, single concentration"}, "[9]": {"system": "spread of an active S. flexneri infection", "settings": "at concentrations at or below their IC50s in the reporter assay; cited from earlier work"}, "[10]": {"system": "initial S. flexneri invasion", "set-up": "method as in PMID 24549153, PMID 20237205", "settings": "at concentrations at or below its IC50 in the reporter assay; cited from earlier work"}},
  "note": "Values joined by “and” are separate entries in the source; they are usually repeats but may differ in a detail not shown here. Identical values can stand only once.",
  "data": [
    {"smiles": "CC(=O)NCC(=O)O.CC(=O)NCC(=O)O.N=C(N)c1ccc(N=NNc2ccc(C(=N)N)cc2)cc1", "note": "[Berenil, reference compound]", "values": [
      {"measurement": "Displacement of ethidium bromide from the pvirB DNA probes (FID)", "setting": "[1]; 12.5 to 100 μM, both 60 bp and 10 bp probes", "value": "able to displace ethidium bromide"},
      {"measurement": "60 bp pvirB FID probe %fluorescence", "setting": "[1]; compound 12.5 μM", "value": "76% ± 2%"},
      {"measurement": "60 bp pvirB FID probe %fluorescence", "setting": "[1]; compound 25 μM", "value": "67% ± 2%"},
      {"measurement": "60 bp pvirB FID probe %fluorescence", "setting": "[1]; compound 50 μM", "value": "58% ± 1%"},
      {"measurement": "60 bp pvirB FID probe %fluorescence", "setting": "[1]; compound 100 μM", "value": "48% ± 2%"},
      {"measurement": "%fluorescence, 10 bp fragment pvirB 21-30", "setting": "[2]; compound 2 μM, preliminary FID screen, 5'-AATAAAGATA-3'", "value": "81% ± 4%"},
      {"measurement": "%fluorescence, 10 bp fragment pvirB 31-40", "setting": "[2]; compound 2 μM, preliminary FID screen, 5'-AATTGCATCA-3'", "value": "89% ± 5%"},
      {"measurement": "%fluorescence, 10 bp fragment pvirB 1-10", "setting": "[2]; compound 2 μM, preliminary FID screen, 5'-AGAATATTAT-3'", "value": "45% ± 2%"},
      {"measurement": "%fluorescence, 10 bp fragment pvirB 41-50", "setting": "[2]; compound 2 μM, preliminary FID screen, 5'-ATCCAGCTAT-3'", "value": "96% ± 2%"},
      {"measurement": "%fluorescence, 10 bp fragment pvirB 51-60", "setting": "[2]; compound 2 μM, preliminary FID screen, 5'-TAAAATAGTA-3'", "value": "67% and 67% ± 0%"},
      {"measurement": "%fluorescence, 10 bp fragment pvirB 11-20", "setting": "[2]; compound 2 μM, preliminary FID screen, 5'-TCTTTTATCC-3'", "value": "66% ± 0%"},
      {"measurement": "10 bp pvirB 51–60 FID probe %fluorescence", "setting": "[2]; compound 12.5 μM", "value": "52% ± 1%"},
      {"measurement": "10 bp pvirB 51–60 FID probe %fluorescence", "setting": "[2]; compound 25 μM", "value": "51% ± 2%"},
      {"measurement": "10 bp pvirB 51–60 FID probe %fluorescence", "setting": "[2]; compound 50 μM", "value": "51% ± 1%"},
      {"measurement": "10 bp pvirB 51–60 FID probe %fluorescence", "setting": "[2]; compound 100 μM", "value": "46% ± 1%"},
      {"measurement": "%fluorescence", "setting": "[3]", "value": "48 ± 2", "unit": "%"},
      {"measurement": "%fluorescence", "setting": "[4]", "value": "46 ± 1", "unit": "%"},
      {"measurement": "%fluorescence", "setting": "[5]", "value": "45 ± 2", "unit": "%"},
      {"measurement": "%fluorescence", "setting": "[6]", "value": "66 ± 0", "unit": "%"},
      {"measurement": "%fluorescence", "setting": "[7]", "value": "81 ± 4", "unit": "%"},
      {"measurement": "%fluorescence", "setting": "[8]", "value": "89 ± 5", "unit": "%"}
    ]},
    {"smiles": "COc1ccc(NC(=O)c2nc(S(C)(=O)=O)ncc2Cl)cc1Cl", "note": "[compound 144092]", "values": [
      {"measurement": "Inhibition of the spread of an active S. flexneri infection", "setting": "[9]", "value": "approximately 75%"},
      {"measurement": "Inhibition of initial S. flexneri invasion", "setting": "[10]", "value": "approximately 50%"}
    ]}
  ]
}
